Results published in patent US9107413B2, “Pesticidal compositions and processes related thereto” (priority 2011, dated 2015).
Read-outs that look alike come from different tables or passages of the source.

How the values were obtained:
Assay type in all cases: in vivo
GPA (Myzus persicae) = test: Bioassay on green peach aphid (GPA), foliar spray on cabbage seedlings; settings: 72 h, read-out: % Mortality GPA 200 ppm
Description: Certain molecules disclosed in this document were tested against GPA using procedures described in the following example. In the reporting of the results, the “GPA Rating Table” was used (See Table Section).
Cabbage seedlings grown in 3-inch pots, with 2-3 small (3-5 cm) true leaves, were used as test substrate. The seedlings were infested with 20-50 GPA (wingless adult and nymph stages) one day prior to chemical application. Four pots with individual seedlings were used for each treatment. Test compounds (2 mg) were dissolved in 2 mL of acetone/methanol (1:1) solvent, forming stock solutions of 1000 ppm test compound. […] A hand-held aspirator-type sprayer was used for spraying a solution to both sides of […] leaves until runoff. Reference plants (solvent check) were sprayed with the diluent only containing 20% by volume of acetone/methanol (1:1) solvent. Treated plants were held in a holding room for three days at approximately 25° C. and ambient relative humidity (RH) prior to grading. Evaluation was conducted by counting the number of live aphids per plant under a microscope. […] Corrected % Control=100*(X−Y)/X • where • X=No. of live aphids on solvent check plants and • Y=No. of live aphids on treated plants
The results are indicated in the table entitled “Table 5: Biological Results” (See Table Section).

BAW (Spodoptera exigua) = test: Bioassay on beet armyworm (BAW), 128-well diet tray assay; settings: 168 h, read-out: % Mortality BAW 50 μg/cm^2
Description: (§1) Certain molecules disclosed in this document were tested against BAW and CEW using procedures described in the following examples. In the reporting of the results, the “BAW & CEW Rating Table” was used (See Table Section).
Bioassays on BAW (Spodoptera exigua)
Bioassays on BAW were conducted using a 128-well diet tray assay. […] Trays were covered with a clear self-adhesive cover and held at 25° C., 14:10 light-dark for five to seven days. Percent mortality was recorded for the larvae in each well; activity in the eight wells was then averaged. The results are indicated in the table entitled “Table 5: Biological Results” (See Table Section).

CEW (Helicoverpa zea) = test: Bioassay on corn earworm (CEW), 128-well diet tray assay; settings: 168 h, read-out: % Mortality CEW 50 μg/cm^2
Description: as §1
Bioassays on CEW (Helicoverpa zea)
Bioassays on CEW were conducted using a 128-well diet tray assay. […] Trays were covered with a clear self-adhesive cover and held at 25° C., 14:10 light-dark for five to seven days. Percent mortality was recorded for the larvae in each well; activity in the eight wells was then averaged. The results are indicated in the table entitled “Table 5: Biological Results” (See Table Section).

[1] = 200 ppm foliar spray on cabbage seedlings, three days, Abbott corrected % control
[2] = 50 μg/cm^2 on artificial diet, second instar larvae, five to seven days, 25° C.

Row | Structure (SMILES) | mortality at 200 ppm (GPA (Myzus persicae); foliar) | mortality at 50 µg/cm2 (BAW (Spodoptera exigua)) | mortality at 50 µg/cm2 (CEW (Helicoverpa zea)) | mortality at 200 ppm (GPA (Myzus persicae); [1]) | mortality at 50 µg/cm2 (BAW (Spodoptera exigua); [2]) | mortality at 50 µg/cm2 (CEW (Helicoverpa zea); [2])
1 | Cc1cccc(C)c1/N=C(/N/N=C/c1ccc(-c2ncn(-c3ccc(OC(F)(F)F)cc3)n2)cc1)SCC#C[Si](C)(C)C [Compound 9C] | 0% | 50 to 100% | 50 to 100% |  |  | 
2 | Cc1cccc(C)c1/N=C(/N/N=C/c1ccc(-c2ncn(-c3ccc(OC(F)(F)F)cc3)n2)cc1)SCOC(=O)CNC(=O)OCc1ccccc1 [Compound 23C] | 0% | 50 to 100% | 50 to 100% |  |  | 
3 | COc1cc(C)c(/N=C(/N/N=C/c2ccc(-c3ncn(-c4ccc(OC(F)(F)F)cc4)n3)cc2)SCOC(=O)CNC(=O)OCc2ccccc2)c(C)c1 [Compound 28C] | 0 to 80% | 50 to 100% | 50 to 100% |  |  | 
4 | COc1cc(C)c(/N=C(\N/N=C/c2ccc(-c3ncn(-c4ccc(C(F)(F)F)cc4)n3)cc2)SCOC(=O)CNC(=O)OCc2ccccc2)c(C)c1 [Compound 45C] |  | 50 to 100% | 50 to 100% |  |  | 
5 | COc1cc(C)c(/N=C(/N/N=C/c2ccc(-c3ncn(-c4ccc(OC(F)(F)F)cc4)n3)cc2)SCC(=O)N2CCNCC2)c(C)c1 [Compound 65C] |  |  |  | 0 to 80% | 50 to 100% | 50 to 100%
6 | CC(C)c1ccccc1N1C(=O)CS/C1=N\N=C\c1ccc(-c2ncn(-c3ccc(OC(F)(F)F)cc3)n2)cc1 [Compound 73C] |  |  |  | 0 to 80% | 50 to 100% | 50 to 100%
7 | C/C(=N\N=C1/SCC(=O)N1c1ccccc1C(C)C)c1ccc(-c2ncn(-c3ccc(OC(F)(F)F)cc3)n2)cc1 [Compound 122C] |  |  |  |  | 50 to 100% | 50 to 100%
8 | FC(F)Oc1ccccc1N1CCCS/C1=N\N=C\c1ccc(-c2ncn(-c3ccc(OC(F)(F)F)cc3)n2)cc1 [Compound 200C] |  |  |  |  | 50 to 100% | 50 to 100%
9 | Cc1cccc(Cl)c1N1/C(=N/N=C/c2ccc(-c3ncn(-c4ccc(OC(F)(F)F)cc4)n3)cc2)SCCC1C (stereo not shown) [Compound 227C] |  |  |  |  | 50 to 100% | 50 to 100%
10 | CC1CCS/C(=N\N=C\c2ccc(-c3ncn(-c4ccc(OC(F)(F)F)cc4)n3)cc2)N1c1ccccc1OC(C)(F)F (stereo not shown) [Compound 229C] |  |  |  |  | 50 to 100% | 50 to 100%
